The values below come from article PMC4538536, “In Silico-Based High-Throughput Screen for Discovery of Novel Combinations for Tuberculosis Treatment” (Antimicrobial Agents and Chemotherapy, 2015).

Each structure is given as a SMILES string. ≈ marks a conversion by molar mass, not a printed value. Like-named read-outs stand apart in the source and are kept apart here.

For data set [1], the system named is M. tuberculosis H37Rv. Kind of data set: In vitro bactericidal-effect analysis (CFU enumeration of checkerboard wells). Type of data set: cell-based, Mycobacterium tuberculosis. Conditions: single drug at its MIC (FIC of 1); positive = reduction in CFU. The procedure, abridged:
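Wells staying blue in REMA checkerboards with ΣFIC <0.7 (pairs) or <1.5 (triplets) plated on Middlebrook 7H10, 37°C for 21 to 28 days; CFU reduction computed versus untreated start-of-testing counts and versus each drug alone.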

Data set [2] is described as follows: In vivo pharmacokinetics in infected mice (plasma, LC-MS/MS). On the set-up: species or system BALB/c mice. Conditions: mouse; for AUC(0-t) / Cmax: po, steady state, infected mice.
The test system of data set [3] is M. tuberculosis H37Rv. Nature of the data set: MIC determination, resazurin-based microplate assay. It counts as cell-based, Mycobacterium tuberculosis. Conditions: Mycobacterium tuberculosis, single drug.
For data set [4] the following is noted: in vivo, 25 mg/kg; cited from earlier work.
Where [5] appears, read: BALB/c, plasma, 25 mg/kg, Group 5 triplet EMB 100/BDQ 25/SQ109 25 mg/kg oral, read-out: AUC0-24 in Triplet.
The mark [6] stands for this setting: BALB/c, plasma, 25 mg/kg, Group 5 triplet EMB 100/BDQ 25/SQ109 25 mg/kg oral, read-out: Cmax in Triplet.
[7] abbreviates: BALB/c, plasma, 50 mg/kg, Group 2 triplet SQ109 25/BDQ 25/PA824 50 mg/kg oral, read-out: AUC0-24 in Triplet.
Where [8] appears, read: BALB/c, plasma, 50 mg/kg, Group 2 triplet SQ109 25/BDQ 25/PA824 50 mg/kg oral, read-out: Cmax in Triplet.
The mark [9] stands for this setting: BALB/c, plasma, 150 mg/kg, Group 2 quartet SQ109 25/BDQ 25/PA824 50/PZA 150 mg/kg oral, read-out: AUC0-24 in Quartet.
The mark [10] stands for this setting: BALB/c, plasma, 150 mg/kg, Group 2 quartet SQ109 25/BDQ 25/PA824 50/PZA 150 mg/kg oral, read-out: Cmax in Quartet.
The mark [11] stands for this setting: BALB/c, plasma, 150 mg/kg, Group 5 quartet EMB 100/BDQ 25/SQ109 25/PZA 150 mg/kg oral, read-out: AUC0-24 in Quartet.
Where [12] appears, read: BALB/c, plasma, 150 mg/kg, Group 5 quartet EMB 100/BDQ 25/SQ109 25/PZA 150 mg/kg oral, read-out: Cmax in Quartet.

On to `CC(C)=CCC/C(C)=C/CNCCNC1C2CC3CC(C2)CC1C3` (centres unmarked) [SQ109], for which the “ΔLog10 CFU/ml at the MIC” value in the data set with M. tuberculosis H37Rv [1] amounted to 1.40 Log10 CFU/ml. In data set [2] (BALB/c, plasma, oral, SQ109 25 mg/kg, EMB 100 mg/kg, in 3- and 4-drug combinations, read-out: observed AUC in combinations), the exposure (AUC) fell in the range of 2000 to 8900 ng·h/mL. The AUC(0-t) in data set [2] (setting [5]) worked out at 7800 ± 4900 ng·h/mL; in data set [2] (BALB/c, plasma, 25 mg/kg, Group 6 triplet BTZ043 37.5/THI 800/SQ109 25 mg/kg oral, read-out: AUC0-24 in Triplet), 3100 ± 300 ng·h/mL; in data set [2] (setting [7]) it was 8900 ± 3700 ng·h/mL; in data set [2] (BALB/c, plasma, 130 mg/kg, Group 9 triplet EMB 100/SQ109 25/LZD 130 mg/kg oral, read-out: AUC0-24 in Triplet), 4700 ± 1400 ng·h/mL; in data set [2] (setting [9]) it was 5100 ± 800 ng·h/mL; in data set [2] (BALB/c, plasma, 150 mg/kg, Group 3 quartet BTZ043 37.5/SQ109 25/MXF 200/PZA 150 mg/kg oral, read-out: AUC0-24 in Quartet) it was 1800 ± 400 ng·h/mL. In addition, the AUC(0-t) in data set [2] (setting [11]) amounted to 4900 ± 100 ng·h/mL; in data set [2] (BALB/c, plasma, 150 mg/kg, Group 6 quartet BTZ043 37.5/THI 800/SQ109 25/PZA 150 mg/kg oral, read-out: AUC0-24 in Quartet), 4900 ± 2200 ng·h/mL; in data set [2] (BALB/c, plasma, 150 mg/kg, Group 9 quartet EMB 100/SQ109 25/LZD 130/PZA 150 mg/kg oral, read-out: AUC0-24 in Quartet), 7600 ± 3600 ng·h/mL; in data set [2] (BALB/c, plasma, 200 mg/kg, Group 3 triplet BTZ043 37.5/SQ109 25/MXF 200 mg/kg oral, read-out: AUC0-24 in Triplet), 2100 ± 800 ng·h/mL. For the same molecule, the maximum concentration (Cmax) is 5500 ± 5100 ng/mL in data set [2] (setting [6]); 900 ± 500 ng/mL in data set [2] (BALB/c, plasma, 25 mg/kg, Group 6 triplet BTZ043 37.5/THI 800/SQ109 25 mg/kg oral, read-out: Cmax in Triplet); 5200 ± 2700 ng/mL in data set [2] (setting [8]); 900 ± 400 ng/mL in data set [2] (BALB/c, plasma, 130 mg/kg, Group 9 triplet EMB 100/SQ109 25/LZD 130 mg/kg oral, read-out: Cmax in Triplet); 3500 ± 1400 ng/mL in data set [2] (setting [10]); 500 ± 200 ng/mL in data set [2] (BALB/c, plasma, 150 mg/kg, Group 3 quartet BTZ043 37.5/SQ109 25/MXF 200/PZA 150 mg/kg oral, read-out: Cmax in Quartet). In addition, the maximum concentration (Cmax) in data set [2] (setting [12]) came out at 2700 ± 500 ng/mL; in data set [2] (BALB/c, plasma, 150 mg/kg, Group 6 quartet BTZ043 37.5/THI 800/SQ109 25/PZA 150 mg/kg oral, read-out: Cmax in Quartet), 3100 ± 2800 ng/mL; in data set [2] (BALB/c, plasma, 150 mg/kg, Group 9 quartet EMB 100/SQ109 25/LZD 130/PZA 150 mg/kg oral, read-out: Cmax in Quartet), 3500 ± 3100 ng/mL; in data set [2] (BALB/c, plasma, 200 mg/kg, Group 3 triplet BTZ043 37.5/SQ109 25/MXF 200 mg/kg oral, read-out: Cmax in Triplet) it was 700 ± 500 ng/mL. In addition, in data set [2] (in vivo), the “plasma exposure in combination compared with individual (reported) exposure” value was “higher”. Also, the MIC in the data set on M. tuberculosis H37Rv [3] came out at 1.18 µM (≈ 0.39 µg/mL). The “reported AUC” value in data set [4] is 250 ng·h/mL.

`COc1nc2ccc(Br)cc2cc1[C@@H](c1ccccc1)[C@@](O)(CCN(C)C)c1cccc2ccccc12` [Bedaquiline]: in the data set with M. tuberculosis H37Rv [1], the “ΔLog10 CFU/ml at the MIC” value is 0.02 Log10 CFU/ml. For the same molecule, the AUC(0-t) in data set [2] (setting [5]) is 22200 ± 1600 ng·h/mL; in data set [2] (BALB/c, plasma, 50 mg/kg, Group 1 triplet CFZ 20/BDQ 25/PA824 50 mg/kg oral, read-out: AUC0-24 in Triplet), 21000 ± 1700 ng·h/mL; in data set [2] (setting [7]), 34900 ± 5800 ng·h/mL; in data set [2] (BALB/c, plasma, 100 mg/kg, Group 8 triplet PA824 50/BDQ 25/EMB 100 mg/kg oral, read-out: AUC0-24 in Triplet) it was 43300 ± 6000 ng·h/mL; in data set [2] (BALB/c, plasma, 150 mg/kg, Group 1 quartet CFZ 20/BDQ 25/PA824 50/PZA 150 mg/kg oral, read-out: AUC0-24 in Quartet), 30900 ± 5200 ng·h/mL; in data set [2] (setting [9]) it was 31400 ± 5400 ng·h/mL. The AUC(0-t) in data set [2] (setting [11]) was determined as 21500 ± 1600 ng·h/mL; in data set [2] (BALB/c, plasma, 150 mg/kg, Group 7 quartet PA824 50/BDQ 25/MXF 400/PZA 150 mg/kg oral, read-out: AUC0-24 in Quartet), 24600 ± 2900 ng·h/mL; in data set [2] (BALB/c, plasma, 150 mg/kg, Group 8 quartet PA824 50/BDQ 25/EMB 100/PZA 150 mg/kg oral, read-out: AUC0-24 in Quartet), 50700 ± 8900 ng·h/mL; in data set [2] (BALB/c, plasma, 400 mg/kg, Group 7 triplet PA824 50/BDQ 25/MXF 400 mg/kg oral, read-out: AUC0-24 in Triplet) it was 63200 ± 16700 ng·h/mL. The Cmax is 2000 ± 600 ng/mL in data set [2] (setting [6]); 1600 ± 100 ng/mL in data set [2] (BALB/c, plasma, 50 mg/kg, Group 1 triplet CFZ 20/BDQ 25/PA824 50 mg/kg oral, read-out: Cmax in Triplet); 3600 ± 2800 ng/mL in data set [2] (setting [8]); 3100 ± 200 ng/mL in data set [2] (BALB/c, plasma, 100 mg/kg, Group 8 triplet PA824 50/BDQ 25/EMB 100 mg/kg oral, read-out: Cmax in Triplet); 2600 ± 500 ng/mL in data set [2] (BALB/c, plasma, 150 mg/kg, Group 1 quartet CFZ 20/BDQ 25/PA824 50/PZA 150 mg/kg oral, read-out: Cmax in Quartet); 2300 ± 500 ng/mL in data set [2] (setting [10]). The Cmax in data set [2] (setting [12]) was 1700 ± 700 ng/mL; in data set [2] (BALB/c, plasma, 150 mg/kg, Group 7 quartet PA824 50/BDQ 25/MXF 400/PZA 150 mg/kg oral, read-out: Cmax in Quartet) it was 4500 ± 1300 ng/mL; in data set [2] (BALB/c, plasma, 150 mg/kg, Group 8 quartet PA824 50/BDQ 25/EMB 100/PZA 150 mg/kg oral, read-out: Cmax in Quartet) it was 4200 ± 1500 ng/mL; in data set [2] (BALB/c, plasma, 400 mg/kg, Group 7 triplet PA824 50/BDQ 25/MXF 400 mg/kg oral, read-out: Cmax in Triplet) it was 3600 ± 100 ng/mL. In the data set on M. tuberculosis H37Rv [3], this molecule displayed a minimum inhibitory concentration (MIC) of 0.35 µM (≈ 0.194 µg/mL).
